The results in this text go back to patent US11505547B2, “Compounds” (STEP PHARMA S.A.S., priority 2017, dated 2022).

The assay concerns the target T1, human CTPS1 (Homo sapiens, UniProt P17812).
T1 construct: purchased Proteros biostructures GmbH
T1 sequence (P17812 1-591): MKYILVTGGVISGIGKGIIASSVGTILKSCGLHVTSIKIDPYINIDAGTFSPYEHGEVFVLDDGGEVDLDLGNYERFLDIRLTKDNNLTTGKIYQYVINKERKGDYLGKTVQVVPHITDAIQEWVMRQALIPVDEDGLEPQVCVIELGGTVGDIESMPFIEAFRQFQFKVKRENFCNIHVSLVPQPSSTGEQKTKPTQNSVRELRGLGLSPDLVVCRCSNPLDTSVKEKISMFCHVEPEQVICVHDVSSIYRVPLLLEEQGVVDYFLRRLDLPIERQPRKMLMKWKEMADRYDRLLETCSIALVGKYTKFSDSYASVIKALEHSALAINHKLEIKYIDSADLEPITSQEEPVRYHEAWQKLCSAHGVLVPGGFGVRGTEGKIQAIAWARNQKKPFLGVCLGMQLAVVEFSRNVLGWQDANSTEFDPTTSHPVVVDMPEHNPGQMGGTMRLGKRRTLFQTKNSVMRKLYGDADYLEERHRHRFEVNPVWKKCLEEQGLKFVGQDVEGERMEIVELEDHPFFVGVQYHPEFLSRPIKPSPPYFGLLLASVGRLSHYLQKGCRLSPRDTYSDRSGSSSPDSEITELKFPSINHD
In words: Human CTPS1 enzyme inhibition, ADP-Glo Max assay. The settings on record: human full length CTPS1, read-out: CTPS1 (Human CTPS1 Enzyme Inhibition data grouped by potency range, IC50). It counts as biochemical. The protocol:
Biological Example 1—Human CTPS1 Enzyme Inhibition
The enzyme inhibitory activities of compounds invented against the target of interest were determined using the ADP-Glo™ Max assay (Promega, UK). Assays for human CTPS1 were performed in 1× assay buffer containing 50 mM Tris, 10 mM MgCl2, 0.01% Tween-20, pH to 8.0 accordingly. Finally, immediately before use, L-cysteine was added to the 1× assay buffer to a final concentration of 2 mM. All reagents are from Sigma-Aldrich unless specified otherwise. Human full length active C-terminal FLAG-Hiss-tag CTPS1 (UniProtKB-P17812, CTPS[1-591]-[…]) was obtained from Proteros biostructures GmbH.
3× human CTPS1 protein was prepared in 1× assay buffer to the final working protein concentration required for the reaction. A 2 uL volume per well of 3× human CTPS1 protein was mixed with 2 uL per well of 3× test compound (compound prepared in 1× assay buffer to an appropriate final 3× compound concentration respective to the concentration response curve designed for the compounds under test) for 10 minutes at 25° C. The enzymatic reaction was then initiated by addition of a 2 uL per well volume of a pre-mixed substrate mix (UltraPure ATP from ADP-Glo™ Max kit (0.31 mM), GTP (0.034 mM), UTP (0.48 mM) and L-glutamine (0.186 mM)) and the mixture was incubated for an appropriate amount of time within the determined linear phase of the reaction at 25° C. under sealed plate conditions with constant agitation at 500 revolutions per minute (rpm). ADP-GIo™ Max reagent was added for 60 minutes (6 uL per well) and subsequently ADP-Glo™ Max development reagent was added for 60 minutes (12 uL per well) prior to signal detection in a microplate reader (EnVision® Multilabel Reader, Perkin Elmer). Following each reagent addition over the course of the assay, assay plates were pulse centrifuged for 30 seconds at 500 rpm.
In all cases, the enzyme converts ATP to ADP and the ADP-Glo™ Max reagent subsequently depletes any remaining endogenous ATP in the reaction system. The ADP-Glo™ Max detection reagent converts the ADP that has been enzymatically produced back into ATP and using ATP as a substrate together with luciferin for the enzyme luciferase, light is generated which produces a detectable luminescence. […] The percentage inhibition produced by each concentration of compound was calculated using the equation shown below: […]
Percentage inhibition was then plotted against compound concentration, and the 50% inhibitory concentration (IC50) was determined from the resultant concentration-response curve.

With `CC(C)Oc1cncc(-c2ccc(C(=O)NC(C)(C)c3csc(NS(=O)(=O)C4CC4)n3)c(F)c2)n1` [Example R43, N-(2-(2-(cyclopropanesulfonamido)thiazol-4-yl)propan-2-yl)-2-fluoro-4-(6-isopropoxypyrazin-2-yl)benzamide], the IC50 was below 100 nM.

`CC(C)(NC(=O)c1ccc(-c2cncc(OCC(F)(F)F)n2)cc1F)c1csc(NS(=O)(=O)C2CC2)n1` [Example R44, N-(2-(2-(cyclopropanesuIfonamido)thiazol-4-yl)propan-2-yl)-2-fluoro-4-(6-(2,2,2-trifluoroethoxy)pyrazin-2-yl)benzamide]: the half-maximal inhibitory concentration (IC50) fell in the range of 100 to 1000 nM.

In the case of `Cc1cc(-c2cncc(C(F)(F)F)n2)ccc1C(=O)NC(C)(C)c1csc(NS(=O)(=O)C2CC2)n1` [Example R45, N-(2-(2-(cyclopropanesulfonamido)thiazol-4-yl)propan-2-yl)-2-methyl-4-(6-(trifluoromethyl)pyrazin-2-yl)benzamide], the IC50 was 100 to 1000 nM.

Regarding `CCOc1cncc(-c2ccc(C(=O)NC(C)(C)c3csc(NS(=O)(=O)C4CC4)n3)c(C)c2)n1` [Example R46, N-(2-(2-(cyclopropanesuIfonamido)thiazol-4-yl)propan-2-yl)-4-(6-ethoxypyrazin-2-yl)-2-methylbenzamide], the IC50 lay in the range of 100 to 1000 nM.

On to `CCOc1cncc(-c2ccc(C(=O)NC(C)(C)c3csc(NS(=O)(=O)C4CC4)n3)c(C(F)(F)F)c2)n1` [Example R47, N-(2-(2-(cyclopropanesuIfonamido)thiazol-4-yl)propan-2-yl)-4-(6-ethoxypyrazin-2-yl)-2-(trifluoromethyl)benzamide], for which the IC50 was in the range of 100 to 1000 nM.

Regarding `COc1cc(-c2cncc(C(F)(F)F)n2)ccc1C(=O)NC(C)(C)c1csc(NS(=O)(=O)C2CC2)n1` [Example R48, N-(2-(2-(cyclopropanesuIfonamido)thiazol-4-yl)propan-2-yl)-2-methoxy-4-(6-(trifluoromethyl)pyrazin-2-yl)benzamide], the IC50 was in the range of 100 to 1000 nM.

With `COc1cc(-c2cncc(Cl)n2)ccc1C(=O)NC(C)(C)c1csc(NS(=O)(=O)C2CC2)n1` [Example R49, 4-(6-chloropyrazin-2-yl)-N-(2-(2-(cyclopropanesulfonamido)thiazol-4-yl)propan-2-yl)-2-methoxybenzamide], the IC50 is 100 to 1000 nM.

For the compound `COc1cc(-c2cncc(C#N)n2)ccc1C(=O)NC(C)(C)c1csc(NS(=O)(=O)C2CC2)n1` [Example R50, 4-(6-cyanopyrazin-2-yl)-N-(2-(2-(cyclopropanesulfonamido)thiazol-4-yl)propan-2-yl)-2-methoxybenzamide], the IC50 lay in the range of 1000 to 10000 nM.

For the compound `CC(C)(NC(=O)c1ccc(-c2cncc(C(F)(F)F)n2)cc1)c1csc(NS(=O)(=O)C2CC2)n1` [Example R51, N-(2-(2-(cyclopropanesulfonamido)thiazol-4-yl)propan-2-yl)-4-(6-(trifluoromethyl)pyrazin-2-yl)benzamide], the IC50 was below 100 nM.

With `CC(C)(NC(=O)c1ccc(-c2cncc(Cl)n2)cc1)c1csc(NS(=O)(=O)C2CC2)n1` [Example R52, 4-(6-chloropyrazin-2-yl)-N-(2-(2-(cyclopropanesulfonamido)thiazol-4-yl)propan-2-yl)benzamide], the IC50 is below 100 nM.

Consider `Cc1cncc(-c2ccc(C(=O)NC(C)(C)c3csc(NS(=O)(=O)C4CC4)n3)cc2)n1` [Example R53, N-(2-(2-(cyclopropanesulfonamido)thiazol-4-yl)propan-2-yl)-4-(6-methylpyrazin-2-yl)benzamide], for which the concentration for half-maximal inhibition (IC50) was in the range of 100 to 1000 nM.

Regarding `COc1cncc(-c2ccc(C(=O)NC(C)(C)c3csc(NS(=O)(=O)C4CC4)n3)cc2)n1` [Example R54, N-(2-(2-(cyclopropanesulfonamido)thiazol-4-yl)propan-2-yl)-4-(6-methoxypyrazin-2-yl)benzamide], the IC50 is below 100 nM.

In the case of `CCOc1cncc(-c2ccc(C(=O)NC(C)(C)c3csc(NS(=O)(=O)C4CC4)n3)cc2)n1` [Example R55, N-(2-(2-(cyclopropanesulfonamido)thiazol-4-yl)propan-2-yl)-4-(6-ethoxypyrazin-2-yl)benzamide], the IC50 is below 100 nM.

For the compound `CC(C)Oc1cncc(-c2ccc(C(=O)NC(C)(C)c3csc(NS(=O)(=O)C4CC4)n3)cc2)n1` [Example R56, N-(2-(2-(cyclopropanesulfonamido)thiazol-4-yl)propan-2-yl)-4-(6-isopropoxypyrazin-2-yl)benzamide], the IC50 is below 100 nM.

On to `CC(C)(NC(=O)c1ccc(-c2cncc(OCC(F)(F)F)n2)cc1)c1csc(NS(=O)(=O)C2CC2)n1` [Example R57, N-(2-(2-(cyclopropanesuIfonamido)thiazol-4-yl)propan-2-yl)-4-(6-(2,2,2-trifluoroethoxy)pyrazin-2-yl)benzamide], for which the IC50 lay within 100 to 1000 nM.

For `CC(C)(NC(=O)c1ccc(-c2cnccn2)cc1)c1csc(NS(=O)(=O)C2CC2)n1` [Example R58, N-(2-(2-(cyclopropanesulfonamido)thiazol-4-yl)propan-2-yl)-4-(pyrazin-2-yl)benzamide], the IC50 was 100 to 1000 nM.

As for `CCOc1cncc(-c2ccc(C(=O)NC(C)(C)c3nc(NS(=O)(=O)C4CC4)sc3C)nc2)n1` [Example R72, N-(2-(2-(cyclopropanesuIfonamido)-5-methylthiazol-4-yl)propan-2-yl)-5-(6-ethoxypyrazin-2-yl)picolinamide], the concentration for half-maximal inhibition (IC50) was in the range of 1000 to 10000 nM.

Regarding `CCOc1cncc(-c2ccc(C(=O)NC(C)(C)c3nc(NS(=O)(=O)C4CC4)sc3Cl)nc2)n1` [Example R73, N-(2-(5-chloro-2-(cyclopropanesulfonamido)thiazol-4-yl)propan-2-yl)-5-(6-ethoxypyrazin-2-yl)picolinamide], the IC50 lay in the range of 1000 to 10000 nM.

Take `CCOc1cncc(-c2ccc(C(=O)NC(C)(C)c3nc(NS(=O)(=O)C4CC4)sc3C)c(F)c2)n1` [Example R74, N-(2-(2-(cyclopropanesulfonamido)-5-methylthiazol-4-yl)propan-2-yl)-4-(6-ethoxypyrazin-2-yl)-2-fluorobenzamide]: the IC50 lay within 100 to 1000 nM.

For `CCOc1cncc(-c2ccc(C(=O)NC(C)(C)c3nc(NS(=O)(=O)C4CC4)sc3Cl)c(F)c2)n1` [Example R75, N-(2-(5-chloro-2-(cyclopropanesulfonamido)thiazol-4-yl)propan-2-yl)-4-(6-ethoxypyrazin-2-yl)-2-fluorobenzamide], the IC50 fell in the range of 100 to 1000 nM.

Turning to `Cc1cc(-c2cncc(C(F)(F)F)n2)ccc1C(=O)NC(C)(C)c1nc(NS(=O)(=O)C2CC2)sc1C` [Example R76, N-(2-(2-(cyclopropanesuIfonamido)-5-methylthiazol-4-yl)propan-2-yl)-2-methyl-4-(6-(trifluoromethyl)pyrazin-2-yl)benzamide], the IC50 is 100 to 1000 nM.

On to `Cc1cc(-c2cncc(C(F)(F)F)n2)ccc1C(=O)NC(C)(C)c1nc(NS(=O)(=O)C2CC2)sc1Cl` [Example R77, N-(2-(5-chloro-2-(cyclopropanesulfonamido)thiazol-4-yl)propan-2-yl)-2-methyl-4-(6-(trifluoromethyl)pyrazin-2-yl)benzamide], for which the half-inhibitory concentration (IC50) was 1000 to 10000 nM.

`Cc1sc(NS(=O)(=O)C2CC2)nc1C(C)(C)NC(=O)c1ccc(-c2cncc(C(F)(F)F)n2)cc1` [Example R78, N-(2-(2-(cyclopropanesuIfonamido)-5-methylthiazol-4-yl)propan-2-yl)-4-(6-(trifluoromethyl)pyrazin-2-yl)benzamide]: the IC50 was 100 to 1000 nM.

Turning to `CC(C)(NC(=O)c1ccc(-c2cncc(C(F)(F)F)n2)cc1)c1nc(NS(=O)(=O)C2CC2)sc1Cl` [Example R79, N-(2-(5-chloro-2-(cyclopropanesulfonamido)thiazol-4-yl)propan-2-yl)-4-(6-(trifluoromethyl)pyrazin-2-yl)benzamide], the IC50 is 100 to 1000 nM.
